Laboratory results: the NIST ThermoML archive (doi:10.1021/je060271a)
Where “and” joins values, the source holds several entries; their conditions need not be identical. Equal values may be shown once.

Conditions: 303.16 K, Liquid, Vibrating tube method

CCCCCC(=O)OCC(COC(=O)CCCCC)(COC(=O)CCCCC)COC(=O)CCCCC [pentaerythritol tetrahexanoate]
Conditions	mass density
243.6 kPa	988.4 kg/m3
243.8 kPa	988.7 kg/m3
244.8 kPa	988.5 kg/m3 and 988.6 kg/m3
245.2 kPa	988.4 kg/m3 and 988.6 kg/m3
245.3 kPa	988.5 kg/m3
245.5 kPa	988.5 kg/m3
245.9 kPa	988.5 kg/m3 and 988.6 kg/m3
246.2 kPa	988.5 kg/m3
246.6 kPa	988.5 kg/m3
246.7 kPa	988.4 kg/m3
247.3 kPa	988.6 kg/m3 and 988.5 kg/m3
247.4 kPa	988.4 kg/m3
248.5 kPa	988.5 kg/m3
248.8 kPa	988.5 kg/m3
249.2 kPa	988.4 kg/m3
249.3 kPa	988.6 kg/m3
250.7 kPa	988.5 kg/m3
251.1 kPa	988.4 kg/m3
251.2 kPa	988.6 kg/m3
251.4 kPa	988.5 kg/m3
251.6 kPa	988.5 kg/m3
251.9 kPa	988.5 kg/m3
252.1 kPa	988.5 kg/m3
252.3 kPa	988.5 kg/m3
252.5 kPa	988.6 kg/m3
252.6 kPa	988.4 kg/m3
252.8 kPa	988.6 kg/m3
253 kPa	988.4 kg/m3
253.5 kPa	988.5 kg/m3
253.7 kPa	988.4 kg/m3
254 kPa	988.5 kg/m3
254.2 kPa	988.5 kg/m3
254.6 kPa	988.4 kg/m3
254.7 kPa	988.5 kg/m3
255.1 kPa	988.6 kg/m3
255.2 kPa	988.6 kg/m3
255.4 kPa	988.5 kg/m3
255.6 kPa	988.5 kg/m3
255.9 kPa	988.5 kg/m3
256.3 kPa	988.5 kg/m3
256.5 kPa	988.5 kg/m3
256.6 kPa	988.5 kg/m3
257 kPa	988.6 kg/m3 and 988.5 kg/m3
257.3 kPa	988.6 kg/m3
257.5 kPa	988.5 kg/m3
257.8 kPa	988.6 kg/m3 and 988.5 kg/m3
258 kPa	988.5 kg/m3
258.4 kPa	988.4 kg/m3
258.5 kPa	988.5 kg/m3
258.7 kPa	988.5 kg/m3
259.1 kPa	988.7 kg/m3
259.4 kPa	988.6 kg/m3 and 988.5 kg/m3
259.6 kPa	988.6 kg/m3
259.8 kPa	988.5 kg/m3
260.1 kPa	988.5 kg/m3
260.3 kPa	988.6 kg/m3
260.4 kPa	988.4 kg/m3
260.8 kPa	988.5 kg/m3 and 988.4 kg/m3
261.1 kPa	988.5 kg/m3
261.3 kPa	988.6 kg/m3
261.8 kPa	988.5 kg/m3
262.5 kPa	988.4 kg/m3 and 988.5 kg/m3
262.7 kPa	988.5 kg/m3
263.1 kPa	988.5 kg/m3
263.2 kPa	988.6 kg/m3 and 988.5 kg/m3
263.7 kPa	988.5 kg/m3
264.1 kPa	988.5 kg/m3
264.3 kPa	988.5 kg/m3
264.4 kPa	988.6 kg/m3 and 988.5 kg/m3
265 kPa	988.6 kg/m3
265.1 kPa	988.5 kg/m3
265.3 kPa	988.5 kg/m3
265.7 kPa	988.5 kg/m3
266.2 kPa	988.6 kg/m3
266.3 kPa	988.5 kg/m3
266.4 kPa	988.5 kg/m3 and 988.6 kg/m3
266.7 kPa	988.5 kg/m3 and 988.6 kg/m3
266.9 kPa	988.6 kg/m3
267.1 kPa	988.6 kg/m3
267.4 kPa	988.4 kg/m3
267.7 kPa	988.6 kg/m3
267.9 kPa	988.5 kg/m3
268.3 kPa	988.5 kg/m3
268.6 kPa	988.5 kg/m3 and 988.4 kg/m3
268.8 kPa	988.5 kg/m3
269 kPa	988.4 kg/m3
269.1 kPa	988.5 kg/m3
270 kPa	988.5 kg/m3
270.2 kPa	988.5 kg/m3
270.7 kPa	988.6 kg/m3
271 kPa	988.6 kg/m3
271.2 kPa	988.5 kg/m3
271.4 kPa	988.6 kg/m3
271.6 kPa	988.6 kg/m3
272.1 kPa	988.6 kg/m3 and 988.5 kg/m3
272.4 kPa	988.6 kg/m3
274.2 kPa	988.6 kg/m3
274.7 kPa	988.6 kg/m3 and 988.5 kg/m3
275 kPa	988.5 kg/m3
275.2 kPa	988.5 kg/m3
275.6 kPa	988.5 kg/m3
275.7 kPa	988.6 kg/m3
275.9 kPa	988.5 kg/m3
276.1 kPa	988.4 kg/m3
276.4 kPa	988.6 kg/m3
276.8 kPa	988.4 kg/m3 and 988.5 kg/m3
277.3 kPa	988.5 kg/m3
277.5 kPa	988.5 kg/m3
277.6 kPa	988.5 kg/m3
278 kPa	988.6 kg/m3
278.2 kPa	988.5 kg/m3
278.3 kPa	988.6 kg/m3
279 kPa	988.4 kg/m3 and 988.5 kg/m3
279.2 kPa	988.5 kg/m3
279.5 kPa	988.6 kg/m3
279.9 kPa	988.6 kg/m3
280.2 kPa	988.5 kg/m3
280.6 kPa	988.5 kg/m3
280.8 kPa	988.6 kg/m3
280.9 kPa	988.6 kg/m3
281.3 kPa	988.5 kg/m3
281.8 kPa	988.5 kg/m3
282 kPa	988.6 kg/m3
282.3 kPa	988.6 kg/m3
282.5 kPa	988.6 kg/m3
282.7 kPa	988.5 kg/m3
283.2 kPa	988.5 kg/m3
283.5 kPa	988.6 kg/m3
283.7 kPa	988.5 kg/m3
283.9 kPa	988.6 kg/m3
284.9 kPa	988.6 kg/m3
285.3 kPa	988.4 kg/m3
285.6 kPa	988.6 kg/m3
286.1 kPa	988.5 kg/m3 and 988.6 kg/m3
286.5 kPa	988.6 kg/m3
287 kPa	988.6 kg/m3
287.2 kPa	988.6 kg/m3
287.5 kPa	988.5 kg/m3
287.9 kPa	988.5 kg/m3
288.6 kPa	988.5 kg/m3
289.8 kPa	988.5 kg/m3
290.7 kPa	988.5 kg/m3
291 kPa	988.6 kg/m3
291.5 kPa	988.5 kg/m3
291.7 kPa	988.6 kg/m3
